From the NIST ThermoML archive (doi:10.1016/j.fluid.2010.03.010)
Numbers after ± are expanded uncertainties.

Settings: Liquid, Vibrating tube method

CCCC[n+]1ccn(C)c1.O=S(=O)([N-]S(=O)(=O)C(F)(F)F)C(F)(F)F
Settings | mass density [kg/m3]
345.15 K, 101.33 kPa | 1392.16 ± 11
346.15 K, 101.33 kPa | 1391.23 ± 11
347.15 K, 101.33 kPa | 1390.31 ± 11
348.15 K, 101.33 kPa | 1389.38 ± 11
349.15 K, 101.33 kPa | 1388.46 ± 11
350.15 K, 101.33 kPa | 1387.54 ± 11
351.15 K, 101.33 kPa | 1386.61 ± 11
352.15 K, 101.33 kPa | 1385.69 ± 11
353.15 K, 100 kPa | 1385.8 ± 11
353.15 K, 101.33 kPa | 1384.77 ± 11
353.15 K, 250 kPa | 1385.9 ± 11
353.15 K, 500 kPa | 1386.1 ± 11
353.15 K, 1000 kPa | 1386.5 ± 11
353.15 K, 2000 kPa | 1387.4 ± 11
353.15 K, 5000 kPa | 1390.1 ± 11
353.15 K, 10000 kPa | 1394.3 ± 11
353.15 K, 14990 kPa | 1398.4 ± 11
353.15 K, 20010 kPa | 1402.5 ± 11
353.15 K, 24990 kPa | 1406.3 ± 11
353.15 K, 30010 kPa | 1410.2 ± 11
353.15 K, 34990 kPa | 1413.8 ± 11
353.15 K, 40000 kPa | 1417.5 ± 11
353.15 K, 45000 kPa | 1421 ± 11
353.15 K, 50000 kPa | 1424.6 ± 12
353.15 K, 54990 kPa | 1427.9 ± 12
353.15 K, 60010 kPa | 1431.3 ± 12
354.15 K, 101.33 kPa | 1383.85 ± 11
355.15 K, 101.33 kPa | 1382.93 ± 11
356.15 K, 101.33 kPa | 1382.01 ± 11
357.15 K, 101.33 kPa | 1381.09 ± 11
358.15 K, 101.33 kPa | 1380.17 ± 11
359.15 K, 101.33 kPa | 1379.25 ± 11
360.15 K, 101.33 kPa | 1378.34 ± 11
361.15 K, 101.33 kPa | 1377.42 ± 11
362.15 K, 101.33 kPa | 1376.5 ± 11
363.15 K, 100 kPa | 1376.6 ± 11
363.15 K, 101.33 kPa | 1375.58 ± 11
363.15 K, 250 kPa | 1376.7 ± 11
363.15 K, 500 kPa | 1376.9 ± 11
363.15 K, 1010 kPa | 1377.4 ± 11
363.15 K, 4990 kPa | 1381 ± 11
363.15 K, 10010 kPa | 1385.4 ± 11
363.15 K, 14990 kPa | 1389.6 ± 11
363.15 K, 20010 kPa | 1393.8 ± 11
363.15 K, 25000 kPa | 1397.8 ± 11
363.15 K, 30010 kPa | 1401.7 ± 11
363.15 K, 34990 kPa | 1405.5 ± 11
363.15 K, 40000 kPa | 1409.2 ± 11
363.15 K, 45010 kPa | 1412.8 ± 11
363.15 K, 50000 kPa | 1416.4 ± 11
363.15 K, 54990 kPa | 1419.9 ± 11
363.15 K, 60000 kPa | 1423.4 ± 12
373.15 K, 100 kPa | 1367.3 ± 11
373.15 K, 250 kPa | 1367.4 ± 11
373.15 K, 500 kPa | 1367.7 ± 11
373.15 K, 1010 kPa | 1368.2 ± 11
373.15 K, 2000 kPa | 1369.1 ± 11
373.15 K, 4990 kPa | 1371.9 ± 11
373.15 K, 10000 kPa | 1376.5 ± 11
373.15 K, 14990 kPa | 1380.8 ± 11
373.15 K, 20000 kPa | 1385.1 ± 11
373.15 K, 24990 kPa | 1389.2 ± 11
373.15 K, 30010 kPa | 1393.3 ± 11
373.15 K, 34970 kPa | 1397.1 ± 11
373.15 K, 40000 kPa | 1401 ± 11
373.15 K, 45000 kPa | 1404.7 ± 11
373.15 K, 50000 kPa | 1408.4 ± 11
373.15 K, 54990 kPa | 1411.9 ± 11
373.15 K, 60010 kPa | 1415.5 ± 11
393.15 K, 100 kPa | 1348.8 ± 11
393.15 K, 250 kPa | 1348.9 ± 11
393.15 K, 500 kPa | 1349.2 ± 11
393.15 K, 1000 kPa | 1349.7 ± 11
393.15 K, 2000 kPa | 1350.7 ± 11
393.15 K, 4990 kPa | 1353.7 ± 11
393.15 K, 10000 kPa | 1358.6 ± 11
393.15 K, 15000 kPa | 1363.2 ± 11
393.15 K, 20010 kPa | 1367.8 ± 11
393.15 K, 25000 kPa | 1372.1 ± 11
393.15 K, 30010 kPa | 1376.4 ± 11
393.15 K, 35000 kPa | 1380.5 ± 11
393.15 K, 40000 kPa | 1384.6 ± 11
393.15 K, 45000 kPa | 1388.5 ± 11
393.15 K, 50000 kPa | 1392.4 ± 11
393.15 K, 55020 kPa | 1396.2 ± 11
393.15 K, 60000 kPa | 1399.9 ± 11
413.15 K, 100 kPa | 1330 ± 11
413.15 K, 250 kPa | 1330.2 ± 11
413.15 K, 500 kPa | 1330.5 ± 11
413.15 K, 1000 kPa | 1331 ± 11
413.15 K, 2000 kPa | 1332.1 ± 11
413.15 K, 4990 kPa | 1335.3 ± 11
413.15 K, 10000 kPa | 1340.6 ± 11
413.15 K, 14990 kPa | 1345.6 ± 11
413.15 K, 20010 kPa | 1350.5 ± 11
413.15 K, 25000 kPa | 1355.1 ± 11
413.15 K, 30000 kPa | 1359.7 ± 11
413.15 K, 34990 kPa | 1364 ± 11
413.15 K, 40000 kPa | 1368.4 ± 11
413.15 K, 45000 kPa | 1372.5 ± 11
413.15 K, 50000 kPa | 1376.6 ± 11
413.15 K, 55000 kPa | 1380.6 ± 11
413.15 K, 60000 kPa | 1384.5 ± 11
433.15 K, 100 kPa | 1311 ± 10
433.15 K, 250 kPa | 1311.1 ± 10
433.15 K, 500 kPa | 1311.4 ± 10
433.15 K, 1000 kPa | 1312 ± 10
433.15 K, 2000 kPa | 1313.2 ± 10
433.15 K, 4990 kPa | 1316.7 ± 10
433.15 K, 10000 kPa | 1322.4 ± 11
433.15 K, 15000 kPa | 1327.8 ± 11
433.15 K, 20010 kPa | 1333 ± 11
433.15 K, 25010 kPa | 1338 ± 11
433.15 K, 30010 kPa | 1342.9 ± 11
433.15 K, 34990 kPa | 1347.5 ± 11
433.15 K, 40000 kPa | 1352.1 ± 11
433.15 K, 45000 kPa | 1356.6 ± 11
433.15 K, 50000 kPa | 1360.9 ± 11
433.15 K, 55000 kPa | 1365.1 ± 11
433.15 K, 60000 kPa | 1369.3 ± 11
453.15 K, 100 kPa | 1291.4 ± 10
453.15 K, 250 kPa | 1291.7 ± 10
453.15 K, 500 kPa | 1292 ± 10
453.15 K, 1000 kPa | 1292.6 ± 10
453.15 K, 1950 kPa | 1294 ± 10
453.15 K, 4990 kPa | 1297.7 ± 10
453.15 K, 10000 kPa | 1303.9 ± 10
453.15 K, 15000 kPa | 1309.7 ± 10
453.15 K, 20000 kPa | 1315.3 ± 10
453.15 K, 25000 kPa | 1320.7 ± 11
453.15 K, 30010 kPa | 1325.9 ± 11
453.15 K, 35000 kPa | 1330.9 ± 11
453.15 K, 40000 kPa | 1335.9 ± 11
453.15 K, 45010 kPa | 1340.6 ± 11
453.15 K, 50000 kPa | 1345.3 ± 11
453.15 K, 54990 kPa | 1349.8 ± 11
453.15 K, 60000 kPa | 1354.3 ± 11
473.15 K, 100 kPa | 1271.4 ± 10
473.15 K, 250 kPa | 1271.7 ± 10
473.15 K, 500 kPa | 1272 ± 10
473.15 K, 990 kPa | 1272.7 ± 10
473.15 K, 2000 kPa | 1274.2 ± 10
473.15 K, 4990 kPa | 1278.2 ± 10
473.15 K, 10000 kPa | 1285 ± 10
473.15 K, 15000 kPa | 1291.2 ± 10
473.15 K, 20010 kPa | 1297.4 ± 10
473.15 K, 24990 kPa | 1303.2 ± 10
473.15 K, 30010 kPa | 1308.9 ± 10
473.15 K, 34990 kPa | 1314.2 ± 10
473.15 K, 40010 kPa | 1319.6 ± 11
473.15 K, 45000 kPa | 1324.7 ± 11
473.15 K, 50000 kPa | 1329.7 ± 11
473.15 K, 55000 kPa | 1334.5 ± 11
473.15 K, 60000 kPa | 1339.3 ± 11
